# US4510136A (priority 1983, dated 1985)
# Columns and labels:
# Assay type in all cases: in vivo
# Helminthosporium maydis = assay: Southern corn leaf blight control on sprayed corn seedlings (Example 83); conditions: Bipolaris maydis, 192 h, 100 ppm spray, day before inoculation
# Summary of the method: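 Compounds in 6% acetone at 100 ppm in water with 250 ppm TREM 014 surfactant, sprayed to run-off on corn seedlings; next day inoculated with spore suspension. 24 h at saturated humidity and 20°, then 7 days in growth room before disease rating; phytotoxicity scored as growth reduction.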
# Cercospora arachidicola = assay: Peanut early leafspot control on sprayed peanut seedlings (Example 84); conditions: Mycosphaerella arachidis, 360 h, 100 ppm spray, day before inoculation; read-out: % Control Peanut Easly Leafspot
# Phytophthora infestans = assay: whole plant or invertebrate; conditions: Phytophthora infestans, in Solanum lycopersicum, 168 h, read-out: % Control of Tomato Late Blight, 100 ppm spray, day before inoculation
# Venturia inaequalis = assay: Apple scab control on sprayed apple seedlings (Example 82); conditions: Venturia inaequalis, 100 ppm spray, day before inoculation
# Pythium aphanadermatum [1] = assay: Pythium control on cotton, seed coating (Example 91); conditions: 168 h, 0.5 gm/kg seed
# Summary of the method: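 Cotton seeds coated with formulated compound at 2 gm/kg seed, air dried, and planted in soil amended with Pythium aphanadermatum, sand and corn meal. Held 1 week at room temperature before disease rating.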
# corn seedlings = assay: Phytotoxicity on corn seedlings (Example 83); parameters: key: G = growth reduction; H = hormonal effects; conditions: 100 ppm spray
# Description: The compounds of the previous examples were again dissolved in acetone in an amount equal to 6% of the final volume and then suspended at a concentration of 100 ppm in purified water containing 250 ppm of the surfactant TREM 014 (polyhydric alcohol esters). These suspensions were sprayed to the point of run-off on corn seedlings. The following day, the plants were inoculated with a spore suspension of Helminthosporium maydis, causal agent of southern corn leaf blight, and incubated in a saturated humidity chamber at 20° for 24 hours and then in a growth room for an additional 7 days, when disease ratings were made. Treated plants from successful treatments had few or no lesions while the untreated plants had numerous lesions on each leaf. Phytotoxicity expressed as growth reduction was observed on some of the plants in association with disease control.
# Pyricularia oryzae = assay: whole plant or invertebrate; conditions: Pyricularia oryzae, 168 h, read-out: % Control of Rice Blast, 100 ppm spray, day before inoculation
# [2] = test system: Puccinia recondita var. tritici; assay: Wheat leaf rust control on sprayed wheat seedlings (Example 79); conditions: Puccinia recondita, 168 h; 100 ppm spray, day before inoculation
# Summary of the method: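 Wheat seedlings were sprayed to run-off with 100 ppm compound suspended in water with 6% acetone and 250 ppm TREM 014 surfactant. Next day they were inoculated with Puccinia recondita var. tritici spores and held 24 h at saturated humidity, 20°. Rust pustules were rated after a further 7 days in a growth room.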
# Pythium aphanadermatum [3] = assay: Pythium control on corn, seed coating (Example 92); conditions: 504 h, 2 gm/kg seed
# Summary of the method: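 Formulated compounds were coated onto corn seeds at 2 gm/kg seed, air-dried and sown in soil infested with Pythium aphanadermatum at a rate lethal to most untreated seeds. Seeds were held 2 weeks at 49° F, then 1 week at 70° F, before disease rating.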
# Erysiphe cichoracearum = assay: Cucumber powdery mildew control on sprayed cucumber seedlings (Example 80); conditions: Golovinomyces cichoracearum, 168 h, 100 ppm spray, day before inoculation
smiles,measurement,setting,value
"C[Si](C)(Cn1cncn1)c1ccc(Cl)cc1 [(4-Chlorophenyl)dimethyl(1H-1,2,4-triazol-1-ylmethyl)silane]",pest or weed control at 100 ppm,Helminthosporium maydis,0%
same,pest or weed control at 100 ppm,Cercospora arachidicola,90%
same,pest or weed control at 100 ppm,Phytophthora infestans,0%
same,pest or weed control at 100 ppm,Venturia inaequalis,100%
same,pest or weed control at 0.5 g/kg seed,Pythium aphanadermatum [1],53%
same,Phytotoxicity on corn,corn seedlings,G
same,pest or weed control at 100 ppm,Pyricularia oryzae,0%
same,pest or weed control at 100 ppm,[2],100%
same,pest or weed control at 2 g/kg seed,Pythium aphanadermatum [3],8%
same,pest or weed control at 100 ppm,Erysiphe cichoracearum,100%
